In ChEMBL document CHEMBL1146237, “Antineoplastic agents. 561. Total synthesis of respirantin” (2007):
≈ marks a conversion by molar mass, not a printed value.

Assays:
[1] = tested on: P388; test: Growth inhibition of mouse P388 cells; assay type: functional
[2] = tested on: MCF7; test: Growth inhibition of human MCF7 cells; assay type: functional

Question: With `CCC(C)[C@@H]1OC(=O)[C@H](C)OC(=O)[C@@H](NC(=O)c2cccc(NC=O)c2O)[C@@H](C)OC(=O)[C@H](C(C)C)OC(=O)C(C)(C)C(=O)[C@H](CC(C)C)NC1=O` (some centres undefined) as the molecule, how does the GI50 [1] read?
Answer: The GI50 was 0.033 µg/mL (≈ 0.045 µM).

Question: What about the GI50 [2] of the same molecule?
Answer: Its GI50 is 0.62 ng/mL (≈ 0.000845 µM).

Question: For `CCC(C)[C@@H]1OC(=O)[C@H](C)OC(=O)[C@@H](NC(=O)c2cccc(N)c2O)[C@@H](C)OC(=O)[C@H](CC(C)C)OC(=O)C(C)(C)C(=O)[C@H](CC(C)C)NC1=O` (some centres undefined) [KITASTATIN], which GI50 [1] is on record?
Answer: Its GI50 is 0.045 µg/mL (≈ 0.0625 µM).

Question: Which GI50 [1] does the source give for `CCC(C)[C@@H]1OC(=O)[C@H](C)OC(=O)[C@@H](NC(=O)c2cccc(NC=O)c2O)[C@@H](C)OC(=O)[C@H](CC(C)C)OC(=O)C(C)(C)C(=O)[C@H](CC(C)C)NC1=O` (some centres undefined) [RESPIRANTIN] here?
Answer: Its GI50 is 0.0037 µg/mL (≈ 0.00495 µM).
